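48-hour exposure; five concentrations; linearly interpolated endpoints. The concentration for 50% growth inhibition is given as GI50. TGI: concentration producing complete growth inhibition.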

The source of these data is PubChem BioAssay (NCI).

Assay in all cases: NCI-60 cell line screen, 48 h
For assay [1], the system named is ACHN renal.
Assay [2] deals with COLO 205 colon.
Assay [3] concerns HT29 colon.
The subject of assay [4] is NCI-H226 lung.
The subject of assay [5] is NCI-H23 lung.
The subject of assay [6] is NCI-H522 lung.
Assay [7] deals with SF-268 CNS.
Assay [8] has as its system SK-MEL-5 melanoma.
Assay [9] concerns SNB-75 CNS.
Assay [10] relates to SR leukemia.

As to `CN(CCCN(C)CCC1CCCCC1)CCC1CCCCC1`, the GI50 in assay [1] was 4 µM; in assay [2], 1.77 µM; in [3], 0.475 µM; in assay [4] it was 2.57 µM; in assay [5], 8.7 µM; in assay [6], 1.77 µM. Further, the GI50 was 5.14 µM in [7], 1.32 µM in assay [8], 2.04 µM in [9] and 1.19 µM in [10]. For the same molecule, the TGI in [1] is 14.9 µM; in assay [2] it was 3.27 µM; in assay [3] it was 2.37 µM; in assay [4], 11.9 µM; in assay [5], 22.1 µM; in assay [6], 4.36 µM. Moreover, the TGI was 18.9 µM in assay [7], 2.61 µM in assay [8], 6.39 µM in [9] and 4.21 µM in [10].
Take `COc1cc2c(Cc3cc(OCc4ccccc4)ccc3N)nccc2c(OC)c1OC`: the TGI in [1], in assay [2], in assay [3], in [4], in assay [5] and in [6] was greater than 10 µM throughout. The TGI in assay [7], in assay [8], in [9] and in assay [10] was greater than 10 µM each time.
As for `O=C(NC1C=Nc2ccccc2NC1=O)c1ccccc1Cl` (stereo not given), the TGI in assay [1] was greater than 100 µM; in assay [2], 52.7 µM; in [3] it was greater than 100 µM; in assay [4], greater than 100 µM; in assay [5] it was greater than 100 µM; in assay [6] it was greater than 100 µM. Besides, the TGI in assay [7], in assay [8], in [9] and in assay [10] was greater than 100 µM in each case.
For the molecule `Cc1c(C(N)=O)sc2c1c(=O)n(Cc1ccccc1)c1nnc(S(=O)(=O)CC(=O)Nc3ccc(Cl)cc3)n21`, the GI50 in assay [1] was 4.63 µM; in assay [2] it was 10.7 µM; in [3], 6.82 µM; in assay [4] it was 4.83 µM; in assay [5], 3.13 µM; in assay [6], 2.53 µM. For the same molecule, the GI50 was 6.8 µM in [7], 6.02 µM in [8], 2.15 µM in [9] and 6.71 µM in [10]. Besides, the TGI turned out to be 20.6 µM in assay [1]; 27.5 µM in assay [2]; 26 µM in assay [3]; 19.8 µM in assay [4]; 9.71 µM in assay [5]; 6.73 µM in assay [6]. The TGI was determined as 27.4 µM in assay [7], 20.7 µM in assay [8], 5.48 µM in assay [9] and 30.3 µM in [10].
As to `CN(C)c1ncnc2c1ccn2C1OC(CO)C(O)C1O` (stereo not given), the GI50 is 3.18 µM in assay [1]; 18.8 µM in assay [2]; 1.47 µM in assay [3]; greater than 100 µM in assay [4]; 5.45 µM in assay [5]; greater than 100 µM in [6]. Further, the GI50 in [7] was 3.63 µM; in assay [8], greater than 100 µM; in assay [9], 1.64 µM; in assay [10], 13.8 µM. Moreover, the TGI in [1], in [2], in assay [3], in [4], in assay [5] and in assay [6] was greater than 100 µM in each case. In addition, the TGI in assay [7] is greater than 100 µM; in [8] it was greater than 100 µM; in assay [9] it was 22.5 µM; in [10] it was greater than 100 µM.
On to `COC(=O)Nc1nc2ccc(S(=O)(=O)c3ccc(NC(=O)Nc4cc(C(F)(F)F)ccc4F)cc3)cc2[nH]1`, for which the GI50 in [1], in assay [2], in assay [3], in assay [4], in [5] and in assay [6] was greater than 25 µM in each case. For the same molecule, the GI50 in [7], in assay [8], in assay [9] and in assay [10] was greater than 25 µM each time. The TGI in [1], in assay [2], in assay [3], in assay [4], in assay [5] and in [6] was greater than 25 µM each time. The TGI in assay [7], in [8], in [9] and in assay [10] was greater than 25 µM in each case.
For `O=[N+]([O-])c1cc2c(ccc3occc32)o1`, the GI50 was 0.561 µM in assay [1]; 1.57 µM in assay [2]; 2.45 µM in assay [3]; 4.04 µM in assay [4]; 2.69 µM in assay [5]; 1.67 µM in [6]. Also, the GI50 was 2.21 µM in [7], 1.17 µM in assay [8], 3.08 µM in assay [9] and 2 µM in assay [10]. The TGI in assay [1] was 8.03 µM; in [2], 3.12 µM; in [3] it was 18.8 µM; in [4] it was 31.7 µM; in [5] it was 15.6 µM; in assay [6] it was 4.45 µM. The TGI was found to be 12.8 µM in assay [7], 2.54 µM in assay [8], 53.9 µM in [9] and 9.64 µM in assay [10].
